According to publication PMC6934184, “Selective DNA-PKcs inhibition extends the therapeutic index of localized radiotherapy and chemotherapy” (The Journal of Clinical Investigation, 2019):

Target: T1, KIT D820E (Homo sapiens, UniProt P10721, D820E)
T1 construct: purchased Thermo Fisher Scientific (Life Technologies) SelectScreen
Assay: SelectScreen LanthaScreen
Assay type: binding
Conditions: read-out: % displacement
Procedure, shortened: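 NU5455 was profiled across the SelectScreen Broad panel of kinase activity and binding assays. Z'LYTE reactions such as CSF1R ran at apparent Km ATP, while the Adapta CAMK1 assay used ATP listed as 10. Values are given as percent.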

T1 sequence (P10721 26-976 D820E): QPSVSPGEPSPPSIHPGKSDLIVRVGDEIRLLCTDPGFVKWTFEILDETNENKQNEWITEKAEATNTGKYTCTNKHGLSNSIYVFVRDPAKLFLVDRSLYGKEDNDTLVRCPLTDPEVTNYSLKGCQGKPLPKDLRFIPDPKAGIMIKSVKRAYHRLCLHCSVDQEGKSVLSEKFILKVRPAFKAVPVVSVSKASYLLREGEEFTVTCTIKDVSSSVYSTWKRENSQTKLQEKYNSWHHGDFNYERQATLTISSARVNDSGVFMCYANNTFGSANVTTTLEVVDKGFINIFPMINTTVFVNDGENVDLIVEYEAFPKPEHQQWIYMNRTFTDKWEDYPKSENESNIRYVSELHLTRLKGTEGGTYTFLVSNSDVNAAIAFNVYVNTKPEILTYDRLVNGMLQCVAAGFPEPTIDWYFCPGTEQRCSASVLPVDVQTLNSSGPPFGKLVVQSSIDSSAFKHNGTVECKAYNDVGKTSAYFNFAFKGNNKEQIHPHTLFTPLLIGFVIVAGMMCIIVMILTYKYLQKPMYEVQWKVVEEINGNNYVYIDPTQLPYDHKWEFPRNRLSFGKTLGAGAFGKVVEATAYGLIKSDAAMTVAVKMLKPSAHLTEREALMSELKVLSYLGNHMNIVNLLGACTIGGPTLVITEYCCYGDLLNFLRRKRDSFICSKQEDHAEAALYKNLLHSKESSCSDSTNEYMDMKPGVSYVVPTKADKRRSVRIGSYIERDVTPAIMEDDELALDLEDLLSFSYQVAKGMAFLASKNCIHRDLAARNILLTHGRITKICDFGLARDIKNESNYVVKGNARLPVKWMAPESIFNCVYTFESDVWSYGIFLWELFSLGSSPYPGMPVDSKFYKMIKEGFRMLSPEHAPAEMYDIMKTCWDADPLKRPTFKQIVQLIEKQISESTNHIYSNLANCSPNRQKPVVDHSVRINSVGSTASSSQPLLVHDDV

Work on `CN(C(=O)CN1CCOCC1)c1ccc2sc3c(-c4cccc5c(=O)cc(N6CC7CCC(C6)O7)oc45)cccc3c2c1` [NU5455] yielded an inhibition at 1 µM of 1.3%.
